This passage reports IC50 and EC50 results from patent US20080194482A1, “Selective Apac2 Receptor Peptide Agonists” (priority 2005, published 2008).

Assay [1] addresses T1, human VPAC1 (Homo sapiens, UniProt P32241).
T1 construct: expressed in transfected cells
T1 sequence (P32241 31-457): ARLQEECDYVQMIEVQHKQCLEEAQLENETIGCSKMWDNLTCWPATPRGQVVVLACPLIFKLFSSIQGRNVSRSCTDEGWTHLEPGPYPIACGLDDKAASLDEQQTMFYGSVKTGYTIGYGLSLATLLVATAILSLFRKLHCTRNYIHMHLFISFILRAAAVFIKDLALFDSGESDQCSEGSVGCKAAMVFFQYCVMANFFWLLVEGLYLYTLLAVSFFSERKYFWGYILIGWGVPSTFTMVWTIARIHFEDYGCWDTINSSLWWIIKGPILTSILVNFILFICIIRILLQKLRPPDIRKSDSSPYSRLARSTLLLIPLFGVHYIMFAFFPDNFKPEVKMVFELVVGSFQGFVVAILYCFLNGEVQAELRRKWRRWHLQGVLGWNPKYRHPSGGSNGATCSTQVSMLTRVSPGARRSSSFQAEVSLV
As to the kind of experiment: Filter binding assay, 125I-labeled VIP tracer, VPAC1 membranes. As to conditions: read-out: Human VPAC1 Receptor Binding (IC50; nM).

Assay [2] concerns the target T2, human PAC1 (Homo sapiens, UniProt P41586).
T2 construct: expressed in transfected cells
T2 sequence (P41586 21-468): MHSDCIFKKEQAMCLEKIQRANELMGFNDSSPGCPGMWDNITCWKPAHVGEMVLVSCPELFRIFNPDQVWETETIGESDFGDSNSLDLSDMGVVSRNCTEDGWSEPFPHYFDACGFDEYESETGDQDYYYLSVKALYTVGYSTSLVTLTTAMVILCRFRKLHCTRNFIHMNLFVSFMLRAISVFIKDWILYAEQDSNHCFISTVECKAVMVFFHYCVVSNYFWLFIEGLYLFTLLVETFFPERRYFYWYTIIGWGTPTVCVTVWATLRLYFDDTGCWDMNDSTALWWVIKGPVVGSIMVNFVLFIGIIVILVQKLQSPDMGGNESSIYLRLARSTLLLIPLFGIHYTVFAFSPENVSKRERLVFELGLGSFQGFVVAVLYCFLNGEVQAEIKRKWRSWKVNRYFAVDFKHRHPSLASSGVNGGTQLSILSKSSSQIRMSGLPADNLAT
The assay is described as follows: Filter binding assay, 125I-labeled PACAP-27 tracer, PAC1 membranes. Particulars: read-out: Human PAC1 Receptor Binding (IC50; nM).

In assay [3] the target is T3, rat VPAC1 receptor (Rattus norvegicus, UniProt P30083).
T3 construct: expressed in transfected cells; host or cells: CHO-PO (transient, Lipofectamine)
T3 sequence (P30083 31-459): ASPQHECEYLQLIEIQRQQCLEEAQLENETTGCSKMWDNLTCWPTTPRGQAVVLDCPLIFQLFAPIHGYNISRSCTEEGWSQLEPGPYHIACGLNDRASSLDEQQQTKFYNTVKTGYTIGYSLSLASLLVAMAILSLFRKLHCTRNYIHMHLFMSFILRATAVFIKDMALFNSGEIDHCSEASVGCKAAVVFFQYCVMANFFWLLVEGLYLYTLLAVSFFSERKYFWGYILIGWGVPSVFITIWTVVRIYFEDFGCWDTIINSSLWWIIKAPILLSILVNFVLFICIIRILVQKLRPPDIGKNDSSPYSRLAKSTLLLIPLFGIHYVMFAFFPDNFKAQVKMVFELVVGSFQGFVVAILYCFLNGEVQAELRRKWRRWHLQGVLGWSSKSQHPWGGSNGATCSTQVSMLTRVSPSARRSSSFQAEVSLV
As to the kind of experiment: DiscoveRx cAMP assay, in vitro potency at rat VPAC1 receptor. Type of assay: cell-based. As to conditions: CHO-PO cells transiently transfected with rat VPAC1; cAMP generation; mean of two independent runs. The procedure: DiscoveRx: CHO-PO cells are transiently transfected with rat VPAC1 or VPAC2 receptor DNA using commercially available transfection reagents (Lipofectamine from Invitrogen). The cells are seeded at a density of 10,000/well in a 96-well plate and are allowed to grow for 3 days in […] culture medium. At day 3, the assay is performed.
On the day of the experiment, the medium is removed. Also, the cells are washed twice. The cells are incubated in assay buffer plus IBMX for 15 minutes at room temperature. Afterwards, the stimuli are added and are dissolved in assay buffer. The stimuli are present for 30 minutes. Then, the assay buffer is gently removed. The cell lysis reagent of the DiscoveRx cAMP kit is added. Thereafter, the standard protocol for developing the cAMP signal as described by the manufacturer is used (DiscoveRx Inc., USA). EC50 values for cAMP generation are calculated from the raw signal or are based on absolute cAMP levels as determined by a standard curve performed on each plate.
Results for each agonist are the mean of two independent runs. Rat VPAC1 and VPAC2 results are only generated using the DiscoveRx assay.

The target of assay [4] is T4, human VPAC2 (Homo sapiens, UniProt P41587).
T4 construct: expressed in transfected cells
T4 sequence (P41587 24-438): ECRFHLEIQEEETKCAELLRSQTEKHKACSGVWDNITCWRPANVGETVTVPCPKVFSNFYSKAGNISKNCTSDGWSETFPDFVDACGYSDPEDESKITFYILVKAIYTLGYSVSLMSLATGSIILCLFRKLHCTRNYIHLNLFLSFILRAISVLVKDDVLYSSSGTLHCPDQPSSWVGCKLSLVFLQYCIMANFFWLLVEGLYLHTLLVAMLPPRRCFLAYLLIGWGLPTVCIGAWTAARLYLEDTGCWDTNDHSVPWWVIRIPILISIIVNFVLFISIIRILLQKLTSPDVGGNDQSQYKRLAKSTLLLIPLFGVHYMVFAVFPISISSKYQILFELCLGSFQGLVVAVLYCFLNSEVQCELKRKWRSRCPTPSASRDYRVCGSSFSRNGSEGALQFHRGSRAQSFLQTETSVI
As to the kind of experiment: Filter binding assay, 125I-labeled VIP tracer, VPAC2 membranes. Particulars: read-out: Human VPAC2 Receptor Binding (IC50; nM).
Method: For this assay, the solutions and equipment include:
Presoak solution: 0.5% Polyethyleneamine in Aqua dest
Buffer for flushing filter plates: 25 mM HEPES pH 7.4
Blocking buffer: 25 mM HEPES pH 7.4; 0.2% protease free BSA
Assay buffer: 25 mM HEPES pH 7.4; 0.5% protease free BSA
Dilution and assay plate: PS-Microplate, U form
Filtration Plate: Multiscreen FB Opaque Plate; 1.0 μM Type B Glasfiber filter
In order to prepare the filter plates, the presoak solution is aspirated by vacuum filtration. The plates are flushed twice with 200 μL flush buffer. 200 μL blocking buffer is added to the filter plate. The filter plate is then incubated with 200 μL presoak solution for 1 hour at room temperature.
The assay plate is filled with 25 μL assay buffer, 25 μL membranes (2.5 μg) suspended in assay buffer, 25 μL compound (agonist) in assay buffer, and 25 μL tracer (about 40000 cpm) in assay buffer. The filled plate is incubated for 1 hour with shaking.
The transfer from assay plate to filter plate is conducted. The blocking buffer is aspirated by vacuum filtration and washed two times with flush buffer. 90 μL is transferred from the assay plate to the filter plate. The 90 μL transferred from assay plate is aspirated and washed three times with 200 μL flush buffer. The plastic support is removed. It is dried for 1 hour at 60° C. 30 μL Microscint is added. The count is performed.

Assay [5] has as its target T4, human VPAC2. The assay is described as follows: Alpha screen cAMP assay, in vitro potency at human VPAC2 receptor. As to conditions: cAMP generation; single result from two analyses in a single run, some values average of more than one experiment. Type of assay: cell-based. Background: Cyclic AMP is a second messenger, typically raised through Gs and lowered through Gi signalling.
Method: Alpha screen: Cells are washed in the culture flask once with PBS. Then, the cells are rinsed with enzyme free dissociation buffer. The dissociated cells are removed. The cells are then spun down and washed in stimulation buffer. For each data point, 50,000 cells suspended in stimulation buffer are used. To this buffer, Alpha screen acceptor beads are added along with the stimuli. This mixture is incubated for 60 minutes. Lysis buffer and Alpha screen donor beads are added and are incubated for 60 to 120 minutes. The Alpha screen signal (indicative of intracellular cAMP levels) is read in a suitable instrument (e.g. AlphaQuest from Perkin-Elmer). Steps including Alpha screen donor and acceptor beads are performed in reduced light. The EC50 for cAMP generation is calculated from the raw signal or is based on absolute cAMP levels as determined by a standard curve performed on each plate.
Results for each agonist are, at minimum, from two analyses performed in a single run. For some agonists, the results are the mean of more than one run. The tested peptide concentrations are: 10000, 1000, 100, 10, 3, 1, 0.1, 0.01, 0.003, 0.001, 0.0001 and 0.00001 nM.

Assay [6] has as its target T5, rat VPAC2 receptor (Rattus norvegicus, UniProt P35000).
T5 construct: expressed in transfected cells; host or cells: CHO-PO (transient, Lipofectamine)
T5 sequence (P35000 23-437): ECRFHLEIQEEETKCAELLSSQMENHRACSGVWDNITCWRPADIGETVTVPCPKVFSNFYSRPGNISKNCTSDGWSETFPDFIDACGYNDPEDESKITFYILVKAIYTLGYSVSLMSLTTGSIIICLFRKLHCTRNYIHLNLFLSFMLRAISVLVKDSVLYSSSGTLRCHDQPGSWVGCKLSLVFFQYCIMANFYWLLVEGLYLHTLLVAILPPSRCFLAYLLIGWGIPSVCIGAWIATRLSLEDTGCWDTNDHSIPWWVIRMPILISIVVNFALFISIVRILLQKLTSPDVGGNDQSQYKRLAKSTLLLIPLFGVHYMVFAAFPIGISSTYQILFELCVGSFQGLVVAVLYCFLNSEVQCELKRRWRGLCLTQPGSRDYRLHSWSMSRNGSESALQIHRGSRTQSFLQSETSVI
As to the kind of experiment: DiscoveRx cAMP assay, in vitro potency at rat VPAC2 receptor. Type of assay: cell-based. Particulars: CHO-PO cells transiently transfected with rat VPAC2; cAMP generation; mean of two independent runs.

Square brackets hold non-standard residues; d marks the D form. Peptide text beside a SMILES is read from it. * marks the point of attachment. Orn = NCCC[C@H](N)C(=O)O; Hexanoyl = CCCCCC(=O)*; Aib = CC(C)(N)C(=O)O Bounds are passed on as bounds.

What is called IC50 is the point on the concentration scale where inhibition reaches its midpoint. Broadly, the EC50 is the concentration giving half of the maximal effect. Read a high EC50 as weaker potency.

For `CCCCCC(=O)N[C@@H](Cc1c[nH]cn1)C(=O)N[C@@H](CO)C(=O)N[C@@H](CC(=O)O)C(=O)N[C@@H](C)C(=O)N[C@H](C(=O)N[C@@H](Cc1ccccc1)C(=O)N[C@H](C(=O)N[C@@H](CC(=O)O)C(=O)N[C@@H](CC(N)=O)C(=O)N[C@@H](Cc1ccc(O)cc1)C(=O)N[C@H](C(=O)N[C@@H](CCCN)C(=O)N[C@@H](CC(C)C)C(=O)N[C@@H](CCCNC(=N)N)C(=O)NC(C)(C)C(=O)N[C@@H](CCC(N)=O)C(=O)N[C@H](C(=O)N[C@@H](CO)C(=O)N[C@@H](C)C(=O)NC(C)(C)C(=O)N[C@@H](CCCCN)C(=O)N[C@@H](Cc1ccc(O)cc1)C(=O)N[C@@H](CC(C)C)C(=O)N[C@@H](CCC(N)=O)C(=O)N[C@@H](CO)C(=O)N[C@H](C(=O)N[C@@H](CCCN)C(=O)N[C@@H](CC(N)=O)C(=O)N[C@@H](CCCN)C(=O)NCC(=O)NCC(=O)N1CCC[C@H]1C(=O)N[C@@H](CO)C(=O)N[C@@H](CO)C(=O)NCC(=O)N[C@@H](C)C(=O)N1CCC[C@H]1C(=O)N1CCC[C@H]1C(=O)N1CCC[C@H]1C(=O)N[C@@H](CO)C(=O)O)[C@@H](C)CC)C(C)C)[C@@H](C)O)[C@@H](C)O)C(C)C` [Agonist P388] (Hexanoyl-HSDAVFTDNYT[Orn]LR[Aib]QVSA[Aib]KYLQSI[Orn]N[Orn]GGPSSGAPPPS-OH; C-terminus assumed), the IC50 in assay [1] is above 3000 nM; in assay [2], above 25000 nM; in assay [4] it was at least 100 nM. Moreover, in assay [3], the half-maximal effective concentration (EC50) was above 2000 nM.
On to `CCCCCC(=O)N[C@@H](Cc1c[nH]cn1)C(=O)N[C@@H](CO)C(=O)N[C@@H](CC(=O)O)C(=O)N[C@@H](C)C(=O)N[C@H](C(=O)N[C@@H](Cc1ccccc1)C(=O)N[C@H](C(=O)N[C@@H](CC(=O)O)C(=O)N[C@@H](CCC(N)=O)C(=O)N[C@@H](Cc1ccc(OC)cc1)C(=O)N[C@H](C(=O)N[C@@H](CCCN)C(=O)N[C@@H](CC(C)C)C(=O)N[C@@H](CCCNC(=N)N)C(=O)NC(C)(C)C(=O)N[C@@H](CCC(N)=O)C(=O)N[C@@H](CC(C)C)C(=O)N[C@@H](C)C(=O)N[C@@H](C)C(=O)NC(C)(C)C(=O)N[C@@H](CCCN)C(=O)N[C@@H](Cc1ccc(O)cc1)C(=O)N[C@@H](CC(C)C)C(=O)N[C@@H](CCC(N)=O)C(=O)N[C@@H](CO)C(=O)N[C@H](C(=O)N[C@@H](CCCN)C(=O)N[C@@H](CCCN)C(=O)NCC(=O)NCC(=O)N1CCC[C@H]1C(=O)N[C@@H](CO)C(=O)N[C@@H](CO)C(=O)NCC(=O)N[C@@H](C)C(=O)N1CCC[C@H]1C(=O)N1CCC[C@H]1C(=O)N1CCC[C@H]1C(=O)N[C@@H](CO)C(=O)O)[C@@H](C)CC)[C@@H](C)O)[C@@H](C)O)C(C)C` [Agonist P394] (Hexanoyl-HSDAVFTDQY(Me)T[Orn]LR[Aib]QLAA[Aib][Orn]YLQSI[Orn][Orn]GGPSSGAPPPS-OH; C-terminus assumed), for which, in assay [2], the half-maximal inhibitory concentration (IC50) is above 25000 nM. The EC50 in assay [3] came out at 0.48 nM; in assay [5], 0.11 nM; in assay [6], 0.03 nM.
